Source: patent US20250186436A1 (4E Therapeutics, Inc., priority 2021, published 2025)
Several values for one entry are separate records, joined by “and”; a condition that tells them apart may be missing. Identical values can stand only once. Like-named read-outs stand apart in the source and are kept apart here.

Test: PK study in male Sprague-Dawley rats dosed once per day for five days, PO 10 mg/kg, 0.5% HPMC (Example 7)
Assay type: in vivo
Conditions: 0.5% HPMC suspension
Method: Example 7. PK study of 4ET-03-053 in male Sprague-Dawley rats dosed once per day for five days (P0; 10 mg/kg; 0.5%0HPMC aqueous suspension)
Table 21 provides plasma and brain concentrations at 24 hr after the last dose of five daily P0 doses of 4ET-03-053.

[1] = Sprague-Dawley rats, day five of daily PO 10 mg/kg, individual animals, 10 mg/kg
[2] = Sprague-Dawley rats, day five of daily PO 10 mg/kg, mean (n = 3)
[3] = male Sprague-Dawley rats, single PO 10 mg/kg dose, individual animals, 10 mg/kg
[4] = male Sprague-Dawley rats, single PO 10 mg/kg dose, mean (n = 3)
[5] = male, Sprague-Dawley, rat, in vivo, po, 10 mg/kg, Sprague-Dawley rats, day five of daily PO 10 mg/kg, individual animals
[6] = male, Sprague-Dawley, rat, in vivo, po, 10 mg/kg, Sprague-Dawley rats, day five of daily PO 10 mg/kg, mean (n = 3)
[7] = male, Sprague-Dawley, rat, in vivo, po, 10 mg/kg, male Sprague-Dawley rats, single PO 10 mg/kg dose, individual animals
[8] = male, Sprague-Dawley, rat, in vivo, po, 10 mg/kg, male Sprague-Dawley rats, single PO 10 mg/kg dose, mean (n = 3)

For `Cc1cc(Nc2cc(N)ncn2)c(=O)n2c1C(=O)NC21CCC2(CC2)CC1` [4ET-03-053, 6″-((6-Aminopyrimidin-4-yl)amino)-8″-methyl-2″H-dispiro[cyclopropane-1,1′-cyclohexane-4′,3″-imidazo[1,5-a]pyridine]-1″,5″-dione], the AUCinf [1] was 318.204 µg·h/mL and 347.92 µg·h/mL, the AUCinf/D [1] was 25862 kg·h/kL and 31820 kg·h/kL and 34792 kg·h/kL and the AUClast [1] was 291.659 µg·h/mL and 320.41 µg·h/mL. For the same molecule, the Clast [1] was 2390 ng/mL and 2740 ng/mL, the Cmax [1] was 18800 ng/mL and the Cmax/D [1] was 2460 kg/kL and 1880 kg/kL and 2510 kg/kL. The F [1] was 50.2% and 61.8% and 67.6%, the MRTinf [1] was 9.17 h and 9.18 h and the t1/2 [1] was 7.19 h and 6.73 h. It also gave an AUCinf/D [2] of 30825 kg·h/kL, a Cmax/D [2] of 2283 kg/kL and an F [2] of 59.9%. For the same molecule, the “time to peak plasma concentration” value (Sprague-Dawley rats, following five daily PO doses of 10 mg/kg) was at most 2 h, the AUCinf [3] was 308.776 µg·h/mL and 251.304 µg·h/mL and the AUCinf/D [3] was 25525 kg·h/kL and 30878 kg·h/kL and 25130 kg·h/kL. For the same molecule, the AUClast [3] was 296.855 µg·h/mL and 240.643 µg·h/mL, the Clast [3] was 1120 ng/mL and 1560 ng/mL and the Cmax [3] was 19900 ng/mL and 21800 ng/mL. The Cmax/D [3] was 2510 kg/kL and 1990 kg/kL and 2180 kg/kL, the F [3] was 49.6% and 60.0% and 48.8% and the MRTinf [3] was 7.59 h and 7.51 h. It also gave an AUCinf/D [4] of 27178 kg·h/kL, a Cmax/D [4] of 2227 kg/kL and an F [4] of 52.8%. The AUC(0-t) [5] was 234 µg·h/mL, the MRT inf [5] was 9.79 h and the Tmax [5] was 2 h. The AUC(0-inf) (male, Sprague-Dawley, rat, in vivo, po, 10 mg/kg, Sprague-Dawley rats, day five of daily PO 10 mg/kg, individual animals, read-out: AUCinf) was 259 µg·h/mL, the concentration at 24 h (male, Sprague-Dawley, rat, in vivo, po, 10 mg/kg, Sprague-Dawley rats, day five of daily PO 10 mg/kg, individual animals, read-out: Clast) was 2880 ng/mL and the Cmax (male, Sprague-Dawley, rat, in vivo, po, 10 mg/kg, Sprague-Dawley rats, day five of daily PO 10 mg/kg, individual animals, read-out: Cmax) was 24600 ng/mL. It also gave a half-life (male, Sprague-Dawley, rat, in vivo, po, 10 mg/kg, Sprague-Dawley rats, day five of daily PO 10 mg/kg, individual animals, read-out: t1/2 (converted)) of 392 min, an AUC(0-t) [6] of 282 µg·h/mL and an MRT inf [6] of 9.38 h. The Tmax [6] was 1.67 h, the AUC(0-inf) (male, Sprague-Dawley, rat, in vivo, po, 10 mg/kg, Sprague-Dawley rats, day five of daily PO 10 mg/kg, mean (n = 3), read-out: AUCinf) was 308 µg·h/mL and the concentration at 24 h (male, Sprague-Dawley, rat, in vivo, po, 10 mg/kg, Sprague-Dawley rats, day five of daily PO 10 mg/kg, mean (n = 3), read-out: Clast) was 2670 ng/mL. For the same molecule, the Cmax (male, Sprague-Dawley, rat, in vivo, po, 10 mg/kg, Sprague-Dawley rats, day five of daily PO 10 mg/kg, mean (n = 3), read-out: Cmax) was 22800 ng/mL, the half-life (male, Sprague-Dawley, rat, in vivo, po, 10 mg/kg, Sprague-Dawley rats, day five of daily PO 10 mg/kg, mean (n = 3), read-out: t1/2 (converted)) was 409 min and the bioavailability (male, Sprague-Dawley, rat, in vivo, po, 10 mg/kg, Sprague-Dawley rats, following five daily PO doses of 10 mg/kg) was 59.9%. For the same molecule, the concentration at 24 h (male, Sprague-Dawley, rat, in vivo, po, 10 mg/kg, Sprague-Dawley rats, following five daily PO doses of 10 mg/kg, at 24 hr, read-out: last measurable concentration) was 2670 ng/mL, the Cmax (male, Sprague-Dawley, rat, in vivo, po, 10 mg/kg, Sprague-Dawley rats, following five daily PO doses of 10 mg/kg, read-out: peak plasma concentration (Cmax)) was 22800 ng/mL and the half-life (male, Sprague-Dawley, rat, in vivo, po, 10 mg/kg, Sprague-Dawley rats, following five daily PO doses of 10 mg/kg, read-out: terminal half-life (converted)) was 409 min. The AUC(0-inf) (male, Sprague-Dawley, rat, in vivo, po, 10 mg/kg, Sprague-Dawley rats, following five daily PO doses of 10 mg/kg, read-out: total systemic exposure (AUCinf)) was 308 µg·h/mL, the AUC(0-t) [7] was 247 µg·h/mL and the MRT inf [7] was 7.18 h. For the same molecule, the Tmax [7] was 2 h, the AUC(0-inf) (male, Sprague-Dawley, rat, in vivo, po, 10 mg/kg, male Sprague-Dawley rats, single PO 10 mg/kg dose, individual animals, read-out: AUCinf) was 255 µg·h/mL and the concentration at 24 h (male, Sprague-Dawley, rat, in vivo, po, 10 mg/kg, male Sprague-Dawley rats, single PO 10 mg/kg dose, individual animals, read-out: Clast) was 1330 ng/mL. The Cmax (male, Sprague-Dawley, rat, in vivo, po, 10 mg/kg, male Sprague-Dawley rats, single PO 10 mg/kg dose, individual animals, read-out: Cmax) was 25100 ng/mL, the half-life (male, Sprague-Dawley, rat, in vivo, po, 10 mg/kg, male Sprague-Dawley rats, single PO 10 mg/kg dose, individual animals, read-out: t1/2 (converted)) was 323 min and the AUC(0-t) [8] was 262 µg·h/mL. For the same molecule, the Tmax [8] was 1.67 h, the AUC(0-inf) (male, Sprague-Dawley, rat, in vivo, po, 10 mg/kg, male Sprague-Dawley rats, single PO 10 mg/kg dose, mean (n = 3), read-out: AUCinf) was 272 µg·h/mL and the concentration at 24 h (male, Sprague-Dawley, rat, in vivo, po, 10 mg/kg, male Sprague-Dawley rats, single PO 10 mg/kg dose, mean (n = 3), read-out: Clast) was 1340 ng/mL. The Cmax (male, Sprague-Dawley, rat, in vivo, po, 10 mg/kg, male Sprague-Dawley rats, single PO 10 mg/kg dose, mean (n = 3), read-out: Cmax) was 22300 ng/mL, the half-life (male, Sprague-Dawley, rat, in vivo, po, 10 mg/kg, male Sprague-Dawley rats, single PO 10 mg/kg dose, mean (n = 3), read-out: t1/2 (converted)) was 307 min and the bioavailability (male, Sprague-Dawley, rat, in vivo, po, 10 mg/kg, male Sprague-Dawley rats, single PO 10 mg/kg) was 52.8%. For the same molecule, the concentration at 24 h (male, Sprague-Dawley, rat, in vivo, po, 10 mg/kg, male Sprague-Dawley rats, single PO 10 mg/kg, at 24 hr, read-out: last measurable concentration) was 1340 ng/mL, the Cmax (male, Sprague-Dawley, rat, in vivo, po, 10 mg/kg, male Sprague-Dawley rats, single PO 10 mg/kg, read-out: peak plasma concentration (Cmax)) was 22300 ng/mL and the half-life (male, Sprague-Dawley, rat, in vivo, po, 10 mg/kg, male Sprague-Dawley rats, single PO 10 mg/kg, read-out: terminal half-life (t1/2) (converted)) was 307 min.
